ChEMBL document CHEMBL3885861, “Open TG-GATES”

Organism: Rattus norvegicus
Test: Open TG-GATES - Regimen: Daily Repeat
Type: toxicity, organism-based, Sprague-Dawley
Set-up: regimen Daily Repeat, gender Male, age 6 weeks
Settings: in vivo, po, 0 mg/kg, route gavage, dose level Control; for APTT / Bas / Eos / Fbg / Hb / Ht / Lym / MCH / MCHC / MCV / Mono / Neu / PT / Plat / RBC / Ret / WBC: tissue Blood; for KIDNEY_L / KIDNEY_R / KIDNEY_TOTAL: tissue Kidney; for LIVER: tissue Liver; for A/G / ALP / ALT / AST / BUN / CRE / Ca / Cl / DBIL / GLC / IP / K / LDH / Na / PL / RALB / TBIL / TC / TG / TP / gamma-GTP: tissue Plasma

SMILES: C[C@](N)(Cc1ccc(O)c(O)c1)C(=O)O [METHYLDOPA]
- TERMINAL_BW (72 h, time 3 day): 207.1 g
- APTT (72 h, time 3 day): 15.9 s
- Bas (72 h, time 3 day): 0%
- Eos (72 h, time 3 day): 1.2%
- Fbg (72 h, time 3 day): 258.8 mg/dL
- Hb (72 h, time 3 day): 13.1 g/dL
- Ht (72 h, time 3 day): 38.4%
- Lym (72 h, time 3 day): 72.4%
- MCH (72 h, time 3 day): 21.5 pg
- MCHC (72 h, time 3 day): 34.1%
- MCV (72 h, time 3 day): 63.1 fL
- Mono (72 h, time 3 day): 3.4%
- Neu (72 h, time 3 day): 22.6%
- PT (72 h, time 3 day): 12.6 s
- Plat (72 h, time 3 day): 117.2 x10_4/uL
- RBC (72 h, time 3 day): 609 x10_4/ul
- Ret (72 h, time 3 day): 7.9%
- WBC (72 h, time 3 day): 72.1 x10_2/uL
- KIDNEY_L (72 h, time 3 day): 0.9 g
- KIDNEY_R (72 h, time 3 day): 0.9 g
- KIDNEY_TOTAL (72 h, time 3 day): 1.8 g
- LIVER (72 h, time 3 day): 9.3 g
- A/G (72 h, time 3 day): 0.8
- ALP (72 h, time 3 day): 1855.2 IU/L
- ALT (72 h, time 3 day): 59.4 IU/L
- AST (72 h, time 3 day): 80.2 IU/L
- BUN (72 h, time 3 day): 14 mg/dL
- CRE (72 h, time 3 day): 0.2 mg/dL
- Ca (72 h, time 3 day): 11.1 mg/dL
- Cl (72 h, time 3 day): 106.6 meq/L
- DBIL (72 h, time 3 day): 0.008 mg/dL
- GLC (72 h, time 3 day): 172.8 mg/dL
- IP (72 h, time 3 day): 7.5 mg/dL
- K (72 h, time 3 day): 3.9 meq/L
- LDH (72 h, time 3 day): 52.2 IU/L
- Na (72 h, time 3 day): 144.6 meq/L
- PL (72 h, time 3 day): 129.8 mg/dL
- RALB (72 h, time 3 day): 2.6 g/dL
- TBIL (72 h, time 3 day): 0.056 mg/dL
- TC (72 h, time 3 day): 76.8 mg/dL
- TG (72 h, time 3 day): 61.4 mg/dL
- TP (72 h, time 3 day): 5.6 g/dL
- gamma-GTP (72 h, time 3 day): 1.2 IU/L
- TERMINAL_BW ([…], time 7 day): 238 g
- TERMINAL_BW ([…], time 14 day): 288.8 g
- TERMINAL_BW ([…], time 28 day): 375.3 g
- APTT ([…], time 7 day): 17 s
- Bas ([…], time 7 day): 0%
- Eos ([…], time 7 day): 1.2%
- Fbg ([…], time 7 day): 283.2 mg/dL
- Hb ([…], time 7 day): 13.5 g/dL
- Ht ([…], time 7 day): 39.4%
- Lym ([…], time 7 day): 75%
- MCH ([…], time 7 day): 21 pg
- MCHC ([…], time 7 day): 34.2%
- MCV ([…], time 7 day): 61.4 fL
- Mono ([…], time 7 day): 3%
- Neu ([…], time 7 day): 20.4%
- PT ([…], time 7 day): 12 s
- Plat ([…], time 7 day): 114.7 x10_4/uL
- RBC ([…], time 7 day): 641.2 x10_4/ul
- Ret ([…], time 7 day): 6%
- WBC ([…], time 7 day): 75.9 x10_2/uL
- APTT ([…], time 14 day): 16.9 s
- Bas ([…], time 14 day): 0%
- Eos ([…], time 14 day): 1%
- Fbg ([…], time 14 day): 290.4 mg/dL
- Hb ([…], time 14 day): 13.8 g/dL
- Ht ([…], time 14 day): 39.4%
- Lym ([…], time 14 day): 76%
- MCH ([…], time 14 day): 21.2 pg
- MCHC ([…], time 14 day): 35%
- MCV ([…], time 14 day): 60.4 fL
- Mono ([…], time 14 day): 3.2%
- Neu ([…], time 14 day): 19.6%
- PT ([…], time 14 day): 14.1 s
- Plat ([…], time 14 day): 102.2 x10_4/uL
- RBC ([…], time 14 day): 652 x10_4/ul
- Ret ([…], time 14 day): 4.8%
- WBC ([…], time 14 day): 69.9 x10_2/uL
- APTT ([…], time 28 day): 19.6 s
- Bas ([…], time 28 day): 0%
- Eos ([…], time 28 day): 1.4%
- Fbg ([…], time 28 day): 315.2 mg/dL
- Hb ([…], time 28 day): 15 g/dL
- Ht ([…], time 28 day): 43.3%
- Lym ([…], time 28 day): 74.4%
- MCH ([…], time 28 day): 19.5 pg
- MCHC ([…], time 28 day): 34.8%
- MCV ([…], time 28 day): 56 fL
- Mono ([…], time 28 day): 2.6%
- Neu ([…], time 28 day): 21.4%
- PT ([…], time 28 day): 13.6 s
- Plat ([…], time 28 day): 106 x10_4/uL
- RBC ([…], time 28 day): 774 x10_4/ul
- Ret ([…], time 28 day): 2.7%
- WBC ([…], time 28 day): 74.6 x10_2/uL
- KIDNEY_L ([…], time 7 day): 1 g
- KIDNEY_R ([…], time 7 day): 1 g
- KIDNEY_TOTAL ([…], time 7 day): 2 g
- KIDNEY_L ([…], time 14 day): 1.1 g
- KIDNEY_R ([…], time 14 day): 1.1 g
- KIDNEY_TOTAL ([…], time 14 day): 2.2 g
- KIDNEY_L ([…], time 28 day): 1.3 g
- KIDNEY_R ([…], time 28 day): 1.2 g
- KIDNEY_TOTAL ([…], time 28 day): 2.5 g
- LIVER ([…], time 7 day): 10.9 g
- LIVER ([…], time 14 day): 12.7 g
- LIVER ([…], time 28 day): 15.4 g
- A/G ([…], time 7 day): 0.9
- ALP ([…], time 7 day): 1514 IU/L
- ALT ([…], time 7 day): 46.8 IU/L
- AST ([…], time 7 day): 72 IU/L
- BUN ([…], time 7 day): 15.6 mg/dL
- CRE ([…], time 7 day): 0.2 mg/dL
- Ca ([…], time 7 day): 11 mg/dL
- Cl ([…], time 7 day): 108.6 meq/L
- DBIL ([…], time 7 day): 0.008 mg/dL
- GLC ([…], time 7 day): 178.2 mg/dL
- IP ([…], time 7 day): 6.9 mg/dL
- K ([…], time 7 day): 4.2 meq/L
- LDH ([…], time 7 day): 57.4 IU/L
- Na ([…], time 7 day): 143.8 meq/L
- PL ([…], time 7 day): 140.8 mg/dL
- RALB ([…], time 7 day): 2.7 g/dL
- TBIL ([…], time 7 day): 0.056 mg/dL
- TC ([…], time 7 day): 75.8 mg/dL
- TG ([…], time 7 day): 93.2 mg/dL
- TP ([…], time 7 day): 5.8 g/dL
- gamma-GTP ([…], time 7 day): 1.2 IU/L
- A/G ([…], time 14 day): 0.8
- ALP ([…], time 14 day): 1553 IU/L
- ALT ([…], time 14 day): 45.2 IU/L
- AST ([…], time 14 day): 65.4 IU/L
- BUN ([…], time 14 day): 15.2 mg/dL
- CRE ([…], time 14 day): 0.2 mg/dL
- Ca ([…], time 14 day): 11.3 mg/dL
- Cl ([…], time 14 day): 107 meq/L
- DBIL ([…], time 14 day): 0.01 mg/dL
- GLC ([…], time 14 day): 188.4 mg/dL
- IP ([…], time 14 day): 6.4 mg/dL
- K ([…], time 14 day): 4.5 meq/L
- LDH ([…], time 14 day): 66.2 IU/L
- Na ([…], time 14 day): 142 meq/L
- PL ([…], time 14 day): 151.8 mg/dL
- RALB ([…], time 14 day): 2.7 g/dL
- TBIL ([…], time 14 day): 0.058 mg/dL
- TC ([…], time 14 day): 76 mg/dL
- TG ([…], time 14 day): 140.8 mg/dL
- TP ([…], time 14 day): 6 g/dL
- gamma-GTP ([…], time 14 day): 1 IU/L
- A/G ([…], time 28 day): 0.8
- ALP ([…], time 28 day): 1221.8 IU/L
- ALT ([…], time 28 day): 41.2 IU/L
- AST ([…], time 28 day): 59 IU/L
- BUN ([…], time 28 day): 15.4 mg/dL
- CRE ([…], time 28 day): 0.2 mg/dL
- Ca ([…], time 28 day): 11.2 mg/dL
- Cl ([…], time 28 day): 105.6 meq/L
- DBIL ([…], time 28 day): 0.018 mg/dL
- GLC ([…], time 28 day): 185.4 mg/dL
- IP ([…], time 28 day): 6 mg/dL
- K ([…], time 28 day): 3.9 meq/L
- LDH ([…], time 28 day): 46.2 IU/L
- Na ([…], time 28 day): 142.8 meq/L
- PL ([…], time 28 day): 167.8 mg/dL
- RALB ([…], time 28 day): 2.8 g/dL
- TBIL ([…], time 28 day): 0.06 mg/dL
- TC ([…], time 28 day): 89 mg/dL
- TG ([…], time 28 day): 140.8 mg/dL
- TP ([…], time 28 day): 6.3 g/dL
- gamma-GTP ([…], time 28 day): 1 IU/L
